25 compounds from patent publication US20250206730A1 (AUTOTELIC BIO INC., priority 2022, published 2025) can be followed below.

Structures are written as SMILES.

The subject of one assay is TGF-β signaling. The assay can be described thus: Assay for evaluating cellular inhibition of TGF-β signaling, 4T1 (SBE-luc2P) luciferase reporter. Format: cell-based. Conditions: Mus musculus, 4T1, 4T1 (SBE-luc2P) transient pool, 0.2% FBS, 2 h pre-treatment, TGF-β1 2 ng/mL 24 h; read-out: IC50 4T1 Cell. In a few lines: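 Luminescence from SMAD-binding-element luciferase was measured after 24 h of 2 ng/mL TGF-β1 at 37 °C, following 2 h compound pre-treatment. HEK293 stable reporter cells were used at 2.5×10^4/well in 0.5% FBS (~80% confluent); the 4T1 SBE-luc2P transient pool at 6×10^3/well in 0.2% FBS (~60% confluent).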

The target of another assay is T1, ALK5 kinase (Homo sapiens, UniProt P36897).
T1 sequence (P36897 34-503): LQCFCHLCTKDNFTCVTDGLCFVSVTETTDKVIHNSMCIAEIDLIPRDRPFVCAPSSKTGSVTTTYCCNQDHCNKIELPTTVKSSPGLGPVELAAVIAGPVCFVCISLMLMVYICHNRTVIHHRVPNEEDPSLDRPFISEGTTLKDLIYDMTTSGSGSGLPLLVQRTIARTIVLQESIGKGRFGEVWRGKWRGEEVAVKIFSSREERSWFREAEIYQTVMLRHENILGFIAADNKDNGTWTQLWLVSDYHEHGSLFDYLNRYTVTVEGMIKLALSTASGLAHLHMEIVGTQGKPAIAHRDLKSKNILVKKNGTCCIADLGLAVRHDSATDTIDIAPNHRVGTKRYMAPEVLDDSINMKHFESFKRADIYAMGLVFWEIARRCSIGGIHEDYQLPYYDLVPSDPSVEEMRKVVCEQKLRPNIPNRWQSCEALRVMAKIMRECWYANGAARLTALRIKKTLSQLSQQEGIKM
Put plainly: LanthaScreen Eu Kinase Binding Assay. To be noted: Kinase Tracer 178, Eu-anti-GST Antibody, read-out: IC50 Enzyme. In a few lines: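 Tracer-displacement TR-FRET: after 30 min RT compound–kinase preincubation, Eu-labelled anti-GST antibody plus Kinase Tracer 178 were incubated 60 min at RT. Binding was read as a lower 665 nm/615 nm emission ratio (excitation 340 nm).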

For `CS(=O)(=O)NC(=O)c1ccc(Nc2cc(Oc3sc(C4CC4)nc3-c3ccccc3)ccn2)nc1` [A-140, 6-((4-((2-Cyclopropyl-4-phenylthiazol-5-yl)oxy)pyridin-2-yl)amino)-N-(methylsulfonyl)nicotinamide], the IC50 was > 100 nM with TGF-β signaling and < 100 nM on ALK5 kinase.

As for `Nc1nc(-c2ccccc2)c(Oc2ccnc(Nc3ccc(C(=O)O)cc3)c2)s1` [A-39, 4-((4-((2-Amino-4-phenylthiazol-5-yl)oxy)pyridin-2-yl)amino)benzoic acid], the half-maximal inhibitory concentration (IC50) in the assay with TGF-β signaling is > 100 nM; on ALK5 kinase, < 100 nM.

In the case of `CCc1nc(-c2ccccc2)c(Oc2ccnc(Nc3cccc(C(=O)O)c3)c2)s1` [A-194, 3-((4-((2-Ethyl-4-phenylthiazol-5-yl)oxy)pyridin-2-yl)amino)benzoic acid], the half-inhibitory concentration (IC50) with TGF-β signaling was > 100 nM; at ALK5 kinase it was < 100 nM.

In the case of `CCc1nc(-c2cccc(C)n2)c(Oc2ccnc(Nc3cc(C(N)=O)ccn3)c2)s1` [A-267, 2-((4-((2-Ethyl-4-(6-methylpyridin-2-yl)thiazol-5-yl)oxy)pyridin-2-yl)amino)isonicotinamide], the half-inhibitory concentration (IC50) in the assay with TGF-β signaling and at ALK5 kinase was < 100 nM throughout.

For `CN(C)c1nc(-c2ccc3ccccc3c2)c(Oc2ccnc(Nc3cccc(S(N)(=O)=O)c3)c2)s1` [A-235, 3-((4-((2-(Dimethylamino)-4-(naphthalen-2-yl)thiazol-5-yl)oxy)pyridin-2-yl)amino)benzenesulfonamide], the IC50 in the assay on TGF-β signaling and at ALK5 kinase was > 100 nM throughout.

With `CC(C)(O)c1cccc(Nc2cc(Oc3sc(C4CC4)nc3-c3ccccc3)ccn2)c1` [A-115, 2-(3-((4-((2-Cyclopropyl-4-phenylthiazol-5-yl)oxy)pyridin-2-yl)amino)phenyl)propan-2-ol], the values for the IC50 with TGF-β signaling and on ALK5 kinase were > 100 nM and < 100 nM, respectively.

As to `CNC(=O)c1ccc(Nc2cc(Oc3sc(C(F)(F)F)nc3-c3ccccc3)ccn2)nc1` [A-150, N-Methyl-6-((4-((4-phenyl-2-(trifluoromethyl)thiazol-5-yl)oxy)pyridin-2-yl)amino)nicotinamide], the half-inhibitory concentration (IC50) in the assay on TGF-β signaling and on ALK5 kinase was < 100 nM each time.

Regarding `CCc1nc(-c2ccccc2)c(Oc2ccnc(Nc3cccc(C(N)=O)c3)c2)s1` [A-183, 3-((4-((2-Ethyl-4-phenylthiazol-5-yl)oxy)pyridin-2-yl)amino)benzamide], the IC50 in the assay on TGF-β signaling and at ALK5 kinase was < 100 nM throughout.

For `CCc1nc(-c2cccc(C)n2)c(Oc2ccnc(Nc3cncc(C(N)=O)c3)c2)s1` [A-261, 5-((4-((2-Ethyl-4-(6-methylpyridin-2-yl)thiazol-5-yl)oxy)pyridin-2-yl)amino)nicotinamide], the IC50 in the assay on TGF-β signaling and on ALK5 kinase was < 100 nM in each case.

With `NC(=O)c1ccc(Nc2cc(Oc3sc(C4CC4)nc3-c3ccccc3)ccn2)cc1` [A-119, 4-((4-((2-Cyclopropyl-4-phenylthiazol-5-yl)oxy)pyridin-2-yl)amino)benzamide], the IC50 with TGF-β signaling and at ALK5 kinase was < 100 nM each time.

Regarding `Cc1nc(-c2ccccc2)c(Oc2ccnc(Nc3ccc(C(C)(C)O)nc3)c2)s1` [A-65, 2-(5-((4-((2-Methyl-4-phenylthiazol-5-yl)oxy)pyridin-2-yl)amino)pyridin-2-yl)propan-2-ol], the results for the IC50 in the assay with TGF-β signaling and on ALK5 kinase were > 100 nM and < 100 nM, respectively.

As for `COC(=O)c1cccc(Nc2cc(Oc3sc(Br)nc3-c3ccccc3)ccn2)c1` [A-170, Methyl 3-((4-((2-bromo-4-phenylthiazol-5-yl)oxy)pyridin-2-yl)amino)benzoate], the IC50 is > 100 nM in the assay with TGF-β signaling and < 100 nM on ALK5 kinase.

As to `CCc1nc(-c2cccc(C)n2)c(Oc2ccnc(Nc3cc(C(=O)O)ccn3)c2)s1` [A-266, 2-((4-((2-Ethyl-4-(6-methylpyridin-2-yl)thiazol-5-yl)oxy)pyridin-2-yl)amino)isonicotinic acid], the results for the concentration for half-maximal inhibition (IC50) with TGF-β signaling and on ALK5 kinase were > 100 nM and < 100 nM, respectively.

For the compound `CNC(=O)c1ccc(Nc2cc(Oc3sc(C(C)C)nc3-c3ccccc3)ccn2)nc1` [A-228, 6-((4-((2-Isopropyl-4-phenylthiazol-5-yl)oxy)pyridin-2-yl)amino)-N-methylnicotinamide], the half-maximal inhibitory concentration (IC50) in the assay on TGF-β signaling and at ALK5 kinase was < 100 nM in each case.

For `CC(C)c1nc(-c2ccccc2)c(Oc2ccnc(Nc3cccc(C(C)(C)O)c3)c2)s1` [A-219, 2-(3-((4-((2-Isopropyl-4-phenylthiazol-5-yl)oxy)pyridin-2-yl)amino)phenyl)propan-2-ol], the IC50 with TGF-β signaling and on ALK5 kinase was > 100 nM each time.

As for `Cc1nc(-c2ccccc2)c(Oc2ccnc(Nc3ccc(C(N)=O)cc3)c2)s1` [A-63], the 50% inhibitory concentration (IC50) in the assay with TGF-β signaling is > 100 nM; on ALK5 kinase, < 100 nM.

As to `CCc1nc(-c2cccc(C)n2)c(Oc2ccnc(Nc3ccnc(C(=O)O)c3)c2)s1` [A-263, 4-((4-((2-Ethyl-4-(6-methylpyridin-2-yl)thiazol-5-yl)oxy)pyridin-2-yl)amino)picolinic acid], the concentration for half-maximal inhibition (IC50) in the assay with TGF-β signaling is > 100 nM; at ALK5 kinase, < 100 nM.

For `NC(=O)c1ccc(Nc2cc(Oc3sc(N)nc3-c3ccccc3)ccn2)cc1` [A-5, 4-((4-((2-Amino-4-phenylthiazol-5-yl)oxy)pyridin-2-yl)amino)benzamide], the half-inhibitory concentration (IC50) with TGF-β signaling was > 100 nM; at ALK5 kinase, < 100 nM.

Consider `CCc1nc(-c2cccc(C)n2)c(Oc2ccnc(Nc3cccc(C(N)=O)n3)c2)s1` [A-255, 6-((4-((2-Ethyl-4-(6-methylpyridin-2-yl)thiazol-5-yl)oxy)pyridin-2-yl)amino)picolinamide], for which the 50% inhibitory concentration (IC50) in the assay with TGF-β signaling and on ALK5 kinase was < 100 nM each time.

Regarding `CC(C)(O)c1cccc(Nc2cc(Oc3sc(N)nc3-c3ccccc3)ccn2)c1` [A-41, 2-(3-((4-((2-Amino-4-phenylthiazol-5-yl)oxy)pyridin-2-yl)amino)phenyl)propan-2-ol], the IC50 in the assay on TGF-β signaling is > 100 nM; on ALK5 kinase, < 100 nM.

Regarding `CC(C)(O)c1ccc(Nc2cc(Oc3sc(C4CC4)nc3-c3ccccc3)ccn2)cn1` [A-121, 2-(5-((4-((2-Cyclopropyl-4-phenylthiazol-5-yl)oxy)pyridin-2-yl)amino)pyridin-2-yl)propan-2-ol], the IC50 in the assay with TGF-β signaling was > 100 nM; at ALK5 kinase it was < 100 nM.

On to `O=C(O)c1ccc(Nc2cc(Oc3sc(C(F)(F)F)nc3-c3ccccc3)ccn2)cc1` [A-152, 4-((4-((4-Phenyl-2-(trifluoromethyl)thiazol-5-yl)oxy)pyridin-2-yl)amino)benzoic acid], for which the IC50 with TGF-β signaling and at ALK5 kinase was < 100 nM throughout.

Consider `CN(C)c1nc(-c2ccccc2)c(Oc2ccnc(Nc3cccc(C(N)=O)c3)c2)s1` [A-155, 3-((4-((2-(Dimethylamino)-4-phenylthiazol-5-yl)oxy)pyridin-2-yl)amino)benzamide], for which the IC50 in the assay on TGF-β signaling and on ALK5 kinase was < 100 nM each time.

As for `COc1nc(-c2ccccc2)c(Oc2ccnc(Nc3cccc(C(=O)O)c3)c2)s1` [A-144, 3-((4-((2-Methoxy-4-phenylthiazol-5-yl)oxy)pyridin-2-yl)amino)benzoic acid], the IC50 in the assay with TGF-β signaling was > 100 nM; on ALK5 kinase, < 100 nM.

In the case of `CS(=O)(=O)Nc1ccc(Nc2cc(Oc3sc(C4CC4)nc3-c3ccccc3)ccn2)nc1` [A-127, N-(6-((4-((2-Cyclopropyl-4-phenylthiazol-5-yl)oxy)pyridin-2-yl)amino)pyridin-3-yl)methanesulfonamide], the IC50 in the assay with TGF-β signaling and on ALK5 kinase was < 100 nM each time.

Broadly, the IC50 is the concentration needed to halve the response being measured.
